Data taken from patent US8987449B2, “Medicine for treating ischemic brain injury and its sequelae, and preparation method thereof” (Haimin Lei, priority 2011, dated 2015).

Legend:
[1] = tested on: VEGF; assay: VEGF content of MCAO rats (kit, 450 nm); assay type: in vivo, rat; conditions: brain homogenate, model group 18.28 ± 1.62
Excerpt: 1.1 Experimental animal and 1.2 Medicine to be tested: the same as effect example 6
1.3 Experimental reagents: PBS, VEGF kit
1.4 Experimental instruments: nylon fishing wire having a diameter of 0.25 mm, German; enzyme-labeling instrument (Finland, Thermo BioAnalysis Company's product, Multiskan MK3 model); surgical instruments, Surgical Instrument Factory of Shanghai Medical Apparatus And Instruments CO, LTD.
2.1 The preparation of re-perfusion model of middle cerebral artery occlusion of a rat: the same as effect example 6
2.2 The judgment on whether the model was successful and 2.3 Grouping and administration: the same as effect example 6
2.4 Taking Material and treatment: the same as effect example 6
As to VEGF, it is detected using enzyme-labeling instrument at 450 nm according to the kit.
The SAS 8.2 statistical software was used to carry out the one-way ANOVA variance analysis and the differences among the groups were compared by t-test.

[2] = tested on: ICR mice; assay: Buccal respiration duration of mice after head cutting (4° C. icy water swimming model); assay type: in vivo, mouse; conditions: control 32.45 ± 5.49
Description: ICR mice, half female and half male, weighing 19-21 g, certificate No.: SCXK (Jing) 2006-0009, provided by BeiJing Vital River Laboratories.
LQC-T4, tetramethylpyrazine (TMP), vanillic acid, Nimodipine (ShanDong XinHua Pharmaceutical CO., Ltd, batch No.: 0908164)
160 male ICR mice were divided into 8 groups randomly by weight, each of which contained 20 mice, wherein 0.5% CMC-NA (0.2 ml·10 g^−1) was administrated intragastrically to the blank control group; 6.7 mg·kg^−1 Nimodipine (0.2 ml·10 g^−1) was administrated intragastrically to the positive control group; 100 mg·kg^−1 TMP (0.2 ml·10 g^−1) was administrated intragastrically to the TMP group, three different dosage of 200 mg·kg^−1, 100 mg·kg^−1, 50 mg·kg^−1 were administrated intragastrically to the LQC-T4 (0.2 ml·10 g^−1) group relatively, and 125 mg·kg^−1 TMP+80 mg·kg^−1 vanillitc acid (0.2 ml·10 g^−1) was administrated intragastrically respectively. The medicines were continuously administrated once a day for 10 days.
The literature was referred to: [LiuZhenquan, SunHui, Xuqiuping, etc., Experimental Study on the Brain-Protective Effect of the Effective Fraction of Naoxin Formula in the Mouse Model of with Load-Bearing Swimming in Cold Water, Journal of Beijing University of Traditional Chinese Medicine [J], 2004, 27(4): 54-56] and the method recorded therein was improved. The head was rapidly cut with a scissor at post mortem when the mouse swam in 4° C. icy water for 3 min after the final administration. After head being cut, the buccal respiration duration of mouse was recorded.
The SAS 8.2 statistical software was used to carry out the one-way ANOVA variance analysis and the difference among the groups were compared by t-test.

[3] = tested on: MDA; assay: MDA of MCAO rats (brain homogenate, kit); assay type: in vivo, rat; conditions: model group 14.53 ± 3.29
Description: 10% chloral hydrate 0.35 g/kg was injected into the abdominal cavity of a rat to anesthetize thereof. The rat was fixed as supine position. The skin was disinfected thereof by 75% medical alcohol. It was cut right in the middle of the neck. The right common carotid artery, internal carotid artery and external carotid artery were separated and the common carotid artery and external carotid artery were ligated. The internal carotid artery was clamped with a bulldog clamp. A cut was made at the crotch of the external carotid artery and the internal carotid artery followed by releasing the bulldog clamp. The nylon wire (diameter 0.25 mm, marked at a distance of 18 mm from the head end) was inserted into the cut and the insertion was stopped when some resistance was felt. The insert depth was a little longer than 18 mm to achieve the cerebral ischemia caused by middle cerebral artery occlusion. The internal carotid artery was ligated and the nylon wire was fixed. The muscle and skin were sutured layer by layer. In sham operation group, the right common carotid artery, the external carotid artery and the internal carotid artery were only exposed and separated. The rats were conventionally raised in different cages regularly. 0.5 ml penicillin was continuously injected into every rat for three days after the surgery.
The rats were divided into 7 groups in the experiment, that is, sham operation group, model group, Nimodipine group, LQC-T4 large dosage group, LQC-T4 small dosage group, TMP group, and TMP+Vanillic acid group. The model rats getting 1 point were distributed randomly into the model group and other administration group, while the rats getting 2 point and 3 point were distributed randomly into above 6 groups according the above method and sham operation group was not involved in the above grouping. 0.5% CMC-NA (1 ml·100 g^−1) was administrated intragastrically to the blank control group and the model group, two dosage group of 120 mg·kg^−1, 60 mg·kg^−1 were administrated intragastrically to the LQC-T4 (1 ml·100 g^−1) group, and 74 mg·kg^−1 TMP+46 mg·kg^−1 vanillitc acid (1 ml·100 g^−1) were administrated intragastrically, once per day continuously for 10 days.
10% chloral hydrate 0.35 g/kg was injected into the abdominal cavity to anesthetize them after the rats were administrated for 10 days. The head was cut and the brain was taken. The cranial bones were stripped, the meninges were peeled off to separate the ischemia side of the brain, the blood streak was striped and then the brain was weighed. 4 times amount of 0.9 physiological saline was added and the brain was homogenized in 0° C. ice bath. […]
It was detected with 722 type visible spectrophotometer according to the kit operation. […]

[4] = 37 mg/kg once per day for 10 days
[5] = 30 mg/kg once per day for 10 days
[6] = 60 mg/kg intragastrically once per day for 10 days
[7] = 120 mg/kg intragastrically once per day for 10 days

Cc1nc(C)c(C)nc1C [TMP, tetramethylpyrazine, reference compound]
VEGF [1, 4]: 23.62 ± 6.68
respiration duration ([2]; 125 mg/kg intragastrically once a day for 10 days): 37.26 ± 5.99 s
MDA [3, 4]: 13.27 ± 3.96

COCCOC(=O)C1=C(C)NC(C)=C(C(=O)OC(C)C)C1c1cccc([N+](=O)[O-])c1 (stereo not shown) [Nimodipine, reference compound]
VEGF [1, 5]: 19.66 ± 2.34
respiration duration ([2]; 6.7 mg/kg intragastrically once a day for 10 days): 37.23 ± 5.37 s
MDA [3, 5]: 13.70 ± 6.56

COc1cc(C(=O)OCc2nc(C)c(C)nc2C)ccc1OCc1nc(C)c(C)nc1C [LQC-T4, (3,5,6-trimethylpyrazine-2-yl)methyl 3-methoxy-4-((3,5,6-trimethylpyrazine-2-yl)methoxy) benzoate]
VEGF [1, 6]: 25.67 ± 9.69
VEGF [1, 7]: 22.86 ± 8.42
respiration duration ([2]; 50 mg/kg intragastrically once a day for 10 days): 36.78 ± 5.40 s
respiration duration ([2]; 100 mg/kg intragastrically once a day for 10 days): 36.07 ± 3.15 s
respiration duration ([2]; 200 mg/kg intragastrically once a day for 10 days): 35.91 ± 4.25 s
MDA [3, 6]: 14.32 ± 6.31
MDA [3, 7]: 11.08 ± 4.53
